Laboratory results: PubChem BioAssay (NCI)
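All cell lines were grown in 96-well plates and treated with compound for 48 hours. GI50 = concentration required for 50% inhibition of growth. TGI denotes the concentration required for complete inhibition of growth.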

Experiments:
Assay in all cases: inhibition of tumour cell growth, NCI panel, 48 h
786-0 renal = tested on: 786-0 renal
A498 renal = tested on: A498 renal
A549 NSCLC = tested on: A549 NSCLC
ACHN renal = tested on: ACHN renal
BT-549 breast = tested on: BT-549 breast
CAKI-1 renal = tested on: CAKI-1 renal
COLO 205 colon = tested on: COLO 205 colon
DU-145 prostate = tested on: DU-145 prostate
EKVX NSCLC = tested on: EKVX NSCLC
HCT-116 colon = tested on: HCT-116 colon
HCT-15 colon = tested on: HCT-15 colon
HL-60(TB) leukemia = tested on: HL-60(TB) leukemia
HOP-62 NSCLC = tested on: HOP-62 NSCLC
HOP-92 NSCLC = tested on: HOP-92 NSCLC
HS 578T breast = tested on: HS 578T breast
HT29 colon = tested on: HT29 colon
IGROV1 ovarian = tested on: IGROV1 ovarian
K-562 leukemia = tested on: K-562 leukemia
KM12 colon = tested on: KM12 colon
LOX IMVI melanoma = tested on: LOX IMVI melanoma
M14 melanoma = tested on: M14 melanoma
MCF7 breast = tested on: MCF7 breast
MDA-MB-231 breast = tested on: MDA-MB-231 breast
MDA-MB-435 = tested on: MDA-MB-435
MOLT-4 leukemia = tested on: MOLT-4 leukemia
NCI-H226 lung = tested on: NCI-H226 lung
NCI-H23 lung = tested on: NCI-H23 lung

CC1(C)Cc2cccc(OCC(O)CN3CCN(c4ccc(F)cc4)CC3)c2O1 (centres undefined)
GI50 (786-0 renal): 5.66 µM
TGI (786-0 renal): 15.7 µM
GI50 (A498 renal): 14 µM
TGI (A498 renal): 35.1 µM
GI50 (A549 NSCLC): 19.4 µM
TGI (A549 NSCLC): > 50 µM
GI50 (ACHN renal): 9.65 µM
TGI (ACHN renal): 25 µM
GI50 (BT-549 breast): 17.3 µM
TGI (BT-549 breast): 39.8 µM
GI50 (CAKI-1 renal): 15.8 µM
TGI (CAKI-1 renal): 37.7 µM
GI50 (COLO 205 colon): 11.1 µM
TGI (COLO 205 colon): 26.9 µM
GI50 (DU-145 prostate): 24.1 µM
TGI (DU-145 prostate): > 50 µM
GI50 (EKVX NSCLC): 25 µM
TGI (EKVX NSCLC): > 50 µM
GI50 (HCT-116 colon): 7.34 µM
TGI (HCT-116 colon): 15 µM
GI50 (HCT-15 colon): 13.5 µM
TGI (HCT-15 colon): > 50 µM
GI50 (HL-60(TB) leukemia): 16.4 µM
TGI (HL-60(TB) leukemia): > 50 µM
GI50 (HOP-62 NSCLC): 21.9 µM
TGI (HOP-62 NSCLC): > 50 µM
GI50 (HOP-92 NSCLC): 8.15 µM
TGI (HOP-92 NSCLC): 31.4 µM
GI50 (HS 578T breast): 10.4 µM
TGI (HS 578T breast): 31.3 µM
GI50 (HT29 colon): 7.87 µM
TGI (HT29 colon): 17.2 µM
GI50 (IGROV1 ovarian): 20 µM
TGI (IGROV1 ovarian): > 50 µM
GI50 (K-562 leukemia): 16.6 µM
TGI (K-562 leukemia): > 50 µM
GI50 (KM12 colon): 15.3 µM
TGI (KM12 colon): > 50 µM
GI50 (LOX IMVI melanoma): 23.8 µM
TGI (LOX IMVI melanoma): > 50 µM
GI50 (M14 melanoma): 7.37 µM
TGI (M14 melanoma): 15.1 µM
GI50 (MCF7 breast): 13.4 µM
TGI (MCF7 breast): 49.7 µM
GI50 (MDA-MB-231 breast): 8.58 µM
TGI (MDA-MB-231 breast): 36 µM
GI50 (MDA-MB-435): 10.5 µM
TGI (MDA-MB-435): 25.7 µM
GI50 (MOLT-4 leukemia): 20.2 µM
TGI (MOLT-4 leukemia): > 50 µM
GI50 (NCI-H226 lung): 17.1 µM
TGI (NCI-H226 lung): > 50 µM
GI50 (NCI-H23 lung): 19.1 µM
TGI (NCI-H23 lung): > 50 µM
